The supplement of paper PMC10627819

Key:
Experiment in all cases: fitness (endpoint OD595 vs no drug) (fraction); higher = more growth
S. aureus DSM 20231 = tested on: S. aureus DSM 20231
Outline: (§1)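 Fitness is computed from the optical density at which cultures reach stationary phase, divided by the robust mean of no-drug control wells. Any value above 1 is set to 1. Cultures started at OD595 0.01 in 384-well plates with TSB, LB Lennox or CY at 37 °C, and OD595 was read every 30 min for 14 h against a first-reading background.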

S. pneumoniae D39V = tested on: S. pneumoniae D39V
Outline: as §1

S. aureus Newman = tested on: S. aureus Newman
Outline: as §1

B. subtilis 168 = tested on: B. subtilis 168
Outline: as §1
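Further: OD595 on entry to stationary phase over no-drug wells; at most 1.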

CCC[C@@H]1C[C@@H](C(=O)N[C@@H]([C@H]2O[C@H](SC)[C@H](O)[C@@H](O)[C@H]2O)[C@H](C)Cl)N(C)C1 [Clindamycin] + CO/N=C(\C(=O)N[C@@H]1C(=O)N2C(C(=O)[O-])=C(C[N+]3(C)CCCC3)CS[C@H]12)c1csc(N)n1 [Cefepime]
Settings	fitness
S. aureus DSM 20231, first compound 0.125 µg/mL, partner 0.125 µg/mL	0.0728
S. aureus DSM 20231, first compound 0.125 µg/mL, partner 0.25 µg/mL	0.0809
S. aureus DSM 20231, first compound 0.125 µg/mL, partner 0.5 µg/mL	0.0837
S. aureus Newman, first compound 0.0312 µg/mL, partner 0.125 µg/mL	0.781
S. aureus Newman, first compound 0.0312 µg/mL, partner 0.25 µg/mL	0.713
S. aureus Newman, first compound 0.0312 µg/mL, partner 0.5 µg/mL	0.601
S. aureus Newman, first compound 0.125 µg/mL, partner 0.125 µg/mL	0.187
S. aureus Newman, first compound 0.125 µg/mL, partner 0.25 µg/mL	0.158
S. aureus Newman, first compound 0.125 µg/mL, partner 0.5 µg/mL	0.151
S. pneumoniae D39V, first compound 0.0125 µg/mL, partner 0.0078 µg/mL	0.809
S. pneumoniae D39V, first compound 0.0125 µg/mL, partner 0.0155 µg/mL	0.818
S. pneumoniae D39V, first compound 0.0125 µg/mL, partner 0.031 µg/mL	0.802
S. pneumoniae D39V, first compound 0.015 µg/mL, partner 0.007 µg/mL	0.914
S. pneumoniae D39V, first compound 0.015 µg/mL, partner 0.014 µg/mL	0.937
S. pneumoniae D39V, first compound 0.015 µg/mL, partner 0.028 µg/mL	0.841
S. pneumoniae D39V, first compound 0.025 µg/mL, partner 0.0078 µg/mL	0.599
S. pneumoniae D39V, first compound 0.025 µg/mL, partner 0.0155 µg/mL	0.57
S. pneumoniae D39V, first compound 0.025 µg/mL, partner 0.031 µg/mL	0.523
S. pneumoniae D39V, first compound 0.03 µg/mL, partner 0.007 µg/mL	0.771
S. pneumoniae D39V, first compound 0.03 µg/mL, partner 0.014 µg/mL	0.789
S. pneumoniae D39V, first compound 0.03 µg/mL, partner 0.028 µg/mL	0.696
S. pneumoniae D39V, first compound 0.05 µg/mL, partner 0.0078 µg/mL	0.264
S. pneumoniae D39V, first compound 0.05 µg/mL, partner 0.0155 µg/mL	0.255
S. pneumoniae D39V, first compound 0.05 µg/mL, partner 0.031 µg/mL	0.241
S. pneumoniae D39V, first compound 0.06 µg/mL, partner 0.007 µg/mL	0.408
S. pneumoniae D39V, first compound 0.06 µg/mL, partner 0.014 µg/mL	0.411
S. pneumoniae D39V, first compound 0.06 µg/mL, partner 0.028 µg/mL	0.365

CCC[C@@H]1C[C@@H](C(=O)N[C@@H]([C@H]2O[C@H](SC)[C@H](O)[C@@H](O)[C@H]2O)[C@H](C)Cl)N(C)C1 [Clindamycin] + CO[C@@]12[C@H](COC(N)=O)C3=C(C(=O)C(C)=C(N)C3=O)N1C[C@@H]1N[C@@H]12 [Mitomycin C]
Settings	fitness
S. aureus DSM 20231, first compound 0.0312 µg/mL, partner 0.0312 µg/mL	0.466
S. aureus DSM 20231, first compound 0.0312 µg/mL, partner 0.0625 µg/mL	0.35
S. aureus DSM 20231, first compound 0.0625 µg/mL, partner 0.0156 µg/mL	0.149
S. aureus DSM 20231, first compound 0.0625 µg/mL, partner 0.0312 µg/mL	0.117
S. aureus DSM 20231, first compound 0.0625 µg/mL, partner 0.0625 µg/mL	0.103
S. aureus DSM 20231, first compound 0.125 µg/mL, partner 0.0156 µg/mL	0.0347
S. aureus DSM 20231, first compound 0.125 µg/mL, partner 0.0312 µg/mL	0.0369
S. aureus DSM 20231, first compound 0.125 µg/mL, partner 0.0625 µg/mL	0.083
S. aureus Newman, first compound 0.0312 µg/mL, partner 0.0156 µg/mL	0.537
S. aureus Newman, first compound 0.0312 µg/mL, partner 0.0312 µg/mL	0.483
S. aureus Newman, first compound 0.0312 µg/mL, partner 0.0625 µg/mL	0.412
S. aureus Newman, first compound 0.0625 µg/mL, partner 0.0156 µg/mL	0.421
S. aureus Newman, first compound 0.0625 µg/mL, partner 0.0312 µg/mL	0.355
S. aureus Newman, first compound 0.0625 µg/mL, partner 0.0625 µg/mL	0.243
S. aureus Newman, first compound 0.125 µg/mL, partner 0.0156 µg/mL	0.138
S. aureus Newman, first compound 0.125 µg/mL, partner 0.0312 µg/mL	0.163
S. aureus Newman, first compound 0.125 µg/mL, partner 0.0625 µg/mL	0.0658
S. pneumoniae D39V, first compound 0.0125 µg/mL, partner 0.002 µg/mL	0.651
S. pneumoniae D39V, first compound 0.0125 µg/mL, partner 0.004 µg/mL	0.593
S. pneumoniae D39V, first compound 0.0125 µg/mL, partner 0.008 µg/mL	0.495
S. pneumoniae D39V, first compound 0.015 µg/mL, partner 0.001075 µg/mL	0.912
S. pneumoniae D39V, first compound 0.015 µg/mL, partner 0.00215 µg/mL	0.889
S. pneumoniae D39V, first compound 0.015 µg/mL, partner 0.0043 µg/mL	0.752
S. pneumoniae D39V, first compound 0.025 µg/mL, partner 0.002 µg/mL	0.36
S. pneumoniae D39V, first compound 0.025 µg/mL, partner 0.004 µg/mL	0.328
S. pneumoniae D39V, first compound 0.025 µg/mL, partner 0.008 µg/mL	0.322
S. pneumoniae D39V, first compound 0.03 µg/mL, partner 0.001075 µg/mL	0.708
S. pneumoniae D39V, first compound 0.03 µg/mL, partner 0.00215 µg/mL	0.689
S. pneumoniae D39V, first compound 0.03 µg/mL, partner 0.0043 µg/mL	0.57
S. pneumoniae D39V, first compound 0.05 µg/mL, partner 0.002 µg/mL	0.187
S. pneumoniae D39V, first compound 0.05 µg/mL, partner 0.004 µg/mL	0.144
S. pneumoniae D39V, first compound 0.05 µg/mL, partner 0.008 µg/mL	0.155
S. pneumoniae D39V, first compound 0.06 µg/mL, partner 0.001075 µg/mL	0.453
S. pneumoniae D39V, first compound 0.06 µg/mL, partner 0.00215 µg/mL	0.396
S. pneumoniae D39V, first compound 0.06 µg/mL, partner 0.0043 µg/mL	0.306

CCC[C@@H]1C[C@@H](C(=O)N[C@@H]([C@H]2O[C@H](SC)[C@H](O)[C@@H](O)[C@H]2O)[C@H](C)Cl)N(C)C1 [Clindamycin] + N[C@@H]1CONC1=O [Cycloserine D]
fitness
Settings	partner 0.125 µg/mL	partner 0.25 µg/mL	partner 0.375 µg/mL	partner 0.5 µg/mL	partner 0.75 µg/mL	partner 1.5 µg/mL
B. subtilis 168, first compound 0.0625 µg/mL	0.592	0.512	–	0.549	–	–
B. subtilis 168, first compound 0.125 µg/mL	0.413	0.365	–	0.363	–	–
B. subtilis 168, first compound 0.25 µg/mL	0.396	0.348	–	0.329	–	–
S. aureus DSM 20231, first compound 0.0625 µg/mL	–	–	0.0659	–	0.0748	0.0881
S. aureus DSM 20231, first compound 0.125 µg/mL	–	–	0.0216	–	0.0398	0.0593
S. aureus Newman, first compound 0.0312 µg/mL	–	–	0.732	–	0.735	0.746
S. aureus Newman, first compound 0.125 µg/mL	–	–	0.0953	–	0.115	0.103

fitness, B. subtilis 168, one replicate
Settings	first compound 0.0039 µg/mL	first compound 0.0078 µg/mL	first compound 0.0156 µg/mL
partner 0.125 µg/mL	0.985	0.927	0.879
partner 0.25 µg/mL	0.974	0.859	0.796
partner 0.5 µg/mL	≥ 1	0.901	0.845

N[C@@H]1CONC1=O [Cycloserine D] + CC1=C\[C@@H](O)CC(=O)Cc2nc(co2)C(=O)N2CCC=C2C(=O)O[C@H](C(C)C)[C@H](C)/C=C/C(=O)NC\C=C\1 [Virginiamycin M1]
fitness
Settings	first compound 0.125 µg/mL	first compound 0.25 µg/mL	first compound 0.375 µg/mL	first compound 0.5 µg/mL	first compound 0.75 µg/mL	first compound 1.5 µg/mL
B. subtilis 168, partner 0.0625 µg/mL	0.967	0.971	–	0.852	–	–
B. subtilis 168, partner 0.125 µg/mL	0.922	0.909	–	0.916	–	–
B. subtilis 168, partner 0.25 µg/mL	0.921	0.906	–	≥ 1	–	–
S. aureus DSM 20231, partner 0.0625 µg/mL	–	–	≥ 1	–	≥ 1	0.955
S. aureus DSM 20231, partner 0.125 µg/mL	–	–	≥ 1	–	≥ 1	≥ 1
S. aureus DSM 20231, partner 0.25 µg/mL	–	–	0.999	–	1	≥ 1
S. aureus Newman, partner 0.0625 µg/mL	–	–	≥ 1	–	0.969	0.985
S. aureus Newman, partner 0.125 µg/mL	–	–	≥ 1	–	0.98	0.991
S. aureus Newman, partner 0.25 µg/mL	–	–	≥ 1	–	1	0.981

fitness, one replicate
Settings	first compound 0.375 µg/mL	first compound 0.75 µg/mL	first compound 1.5 µg/mL
S. aureus DSM 20231, partner 0.5 µg/mL	0.996	0.99	0.999
S. aureus DSM 20231, partner 1 µg/mL	0.958	0.984	0.908
S. aureus Newman, partner 0.5 µg/mL	0.914	0.934	≥ 1
S. aureus Newman, partner 1 µg/mL	≥ 1	0.967	0.882
S. aureus Newman, partner 2 µg/mL	0.888	0.931	0.769

N[C@@H]1CONC1=O [Cycloserine D] + CCCCCCCCCC(=O)N[C@@H]1[C@H]([C@@H]([C@H](O[C@H]1OC2=C3C=C4C=C2OC5=C(C=C(C=C5)[C@H]([C@H]6C(=O)N[C@@H](C7=C(C(=CC(=C7)O)OC8[C@H]([C@H]([C@@H]([C@H](O8)CO)O)O)O)C9=C(C=CC(=C9)[C@H](C(=O)N6)NC(=O)[C@@H]4NC(=O)[C@@H]1C2=CC(=CC(=C2)OC2=C(C=CC(=C2)[C@H](C(=O)N[C@H](CC2=CC(=C(O3)C=C2)Cl)C(=O)N1)N)O)O)O)C(=O)O)O[C@H]1[C@@H]([C@H]([C@@H]([C@H](O1)CO)O)O)NC(=O)C)Cl)CO)O)O [Teicoplanin]
fitness, main component drawn
Settings	first compound 0.375 µg/mL	first compound 0.75 µg/mL	first compound 1.5 µg/mL
S. aureus DSM 20231, partner 0.1562 µg/mL	≥ 1	≥ 1	0.989
S. aureus DSM 20231, partner 0.3125 µg/mL	≥ 1	≥ 1	≥ 1
S. aureus DSM 20231, partner 0.625 µg/mL	≥ 1	≥ 1	≥ 1
S. aureus Newman, partner 0.1562 µg/mL	≥ 1	≥ 1	0.975
S. aureus Newman, partner 0.3125 µg/mL	≥ 1	≥ 1	≥ 1
S. aureus Newman, partner 0.625 µg/mL	0.865	0.779	0.77

fitness, S. aureus Newman, one replicate, main component drawn
Settings	first compound 0.375 µg/mL	first compound 0.75 µg/mL	first compound 1.5 µg/mL
partner 0.62 µg/mL	0.831	0.783	0.894
partner 1.24 µg/mL	0.745	0.694	0.743
partner 2.48 µg/mL	0.368	0.341	0.377
